Here are results for two molecules from patent US20100183633A1, “INTERLEUKIN 6 AND TUMOR NECROSIS FACTOR ALPHA AS BIOMARKERS OF JNK INHIBITION” (UNIVERSITY OF MASSACHUSETTS, priority 2008, published 2010).

The test system of one data set is Jnk1−/− mice. Conditions: PTU-treated Jnk1−/− mice. On the procedure: (§1) All studies with the selective ablation of the Jnk1 gene in the mouse nervous system were performed using male mice (8-24 wks old). The mice were treated with PTU in the drinking water (cherry-flavored Cool-Aid supplemented without or with 1.2 mM PTU (Sigma)). Body temperature was measured using a Microtherma 2 Type “T” Thermometer (Braintree Scientic Inc). Rip-CreESR mice were treated with 1 mg 4-hydroxytamoxifen (Sigma) by intraperitoneal injection once each day for 5 consecutive days.

For another data set, the system named is N^KO and N^WT mice. The protocol: as §1
N^KO and N^WT mice were treated with PTU in the drinking water and the effect of feeding a chow diet or a HFD was examined.

The test system of the next data set is HFD-fed F^KO mice. Put plainly: Insulin tolerance test after IL6 treatment. In kind it is in vivo. Conditions: IL6 1 μg/kg s.c., then insulin 0.75 mU/g i.p. after 90 mins; HFD-fed F^KO vs HFD-fed F^WT. On the procedure: FIG. 10F is a graph of the glucose concentration during an ITT in which mice were treated by subcutaneous injection with IL6 (1 μg/kg) and then treated (after 90 mins) with insulin (0.75 mU/g) by intraperitoneal injection. Statistically significant differences between F^KO and F^WT mice are indicated (*, P<0.05; **, P<0.01).
Glucose tolerance, insulin tolerance, pyruvate challenge, and insulin clearance tests: The mice were fed a standard chow diet or a high fat diet (Iso Pro 3000, Purina and F3282, Bioserve Inc.) for 16 wks. Glucose tolerance tests (GTT), insulin tolerance tests (ITT), and pyruvate challenge tests were performed using methods described by Mora et al., FEBS Lett., 579, 3632 (2005). For GTT, mice fasted overnight were injected intraperitoneally with glucose (1 mg/g) and blood glucose concentration was measured over time. For ITT, mice fed ad libitum were injected intraperitoneally with insulin (0.75 mU/g) and blood glucose concentration was measured over time. In some ITT experiments, blood glucose concentration was measured at 30 minutes and the area under the curve (AUC) was calculated. For pyruvate challenge tests, mice fasted overnight were injected intraperitoneally with pyruvate (1 mg/g) and blood glucose concentration was measured over time. […]

The next data set concerns SOCS3. Put plainly: Hepatic SOCS3 expression by immunoblot after IL6 treatment. It is filed as in vivo. Conditions: acute IL6 1 μg/kg s.c., HFD-fed F^KO mice, liver at 90 mins; compared with HFD-fed F^WT. On the procedure: (§2) FIG. 10E is a representation of an immunoblot to detect expression of SOCS3 and tubulin (control). F^WT and F^KO mice were fed a HFD (16 wks). F^KO mice were treated with IL6 (1 μg/kg) by subcutaneous injection. At 90 mins post-injection, the blood IL6 concentration was 44±9.1 pg/ml (mean±SD; n=8), the liver was isolated, and the expression of SOCS3 and Tubulin was examined by immunoblot analysis as set forth in Example 1.
(§3) Immunoblot analysis: Tissue extracts were prepared using Triton lysis buffer [20 mM Tris (pH 7.4), 1% Triton X-100, 10% glycerol, 137 mM NaCl, 2 mM EDTA, 25 mM β-glycerophosphate, 1 mM sodium orthovanadate, 1 mM phenylmethylsulfonyl fluoride, and 10 μg/mL of aprotinin and leupeptin]. […] Immunocomplexes were detected by enhanced chemiluminescence (NEN). Quantitation of immunoblots was performed using the Odyssey™ infrared imaging system (LI-COR Biosciences). The amount of total and phospho-JNK1/2, cJun, ERK1/2, p38 MAPK, and AKT in tissue extracts was measured by multiplexed ELISA using a Luminex 200 instrument (Millipore) […]

The nature of data set [1]: Blood IL6 concentration after subcutaneous IL6 injection. It is filed as in vivo. Conditions: IL6 1 μg/kg subcutaneous, HFD-fed F^KO mice, 90 mins post-injection, mean±SD, n=8. On the procedure: as §2
Cytokine analysis: Cytokines in plasma, serum, and culture medium were measured by multiplexed ELISA using a Luminex 200 machine (Millipore) and serum mouse adipokine, adiponectin and cytokine kits (Millipore). Insulin and insulin C-peptide in plasma were measured by ELISA using a Luminex 200 machine. Blood glucose was measured with an Ascensia Breeze 2 glucose meter (Bayer). Alanine transaminase (ALT) and aspartate aminotransferase (AST) activity in serum was measured using the ALT and AST Reagent kit (Pointe Scientific) with a Tecan Sapphire […] microplate reader (Tecan Trading AG).

The subject of the next data set is AKT. Nature of the data set: Insulin-stimulated AKT activation (immunoblot) after IL6 treatment. In kind it is in vivo. Conditions: IL6 1 μg/kg s.c., insulin 0.3 mU/g i.v. after 90 mins, HFD-fed F^KO mice. On the procedure:
FIGS. 10G and 10H are representations of immunoblots to detect AKT, phospho-AKT, and tubulin in liver (G) and epididymal fat pads (H). HFD-fed F^KO mice were subcutaneously injected with IL6 (1 μg/kg) and after 90 mins, intravenously injected with insulin (0.3 mU/g). The liver (G) and epididymal fat pads (H) were isolated after 5 mins and examined by immunoblot analysis as set forth in Example 1.
as §3

For the molecule `CCCc1cc(=O)[nH]c(=S)[nH]1` [PTU, propylthiouracil], in the data set on Jnk1−/− mice, the “effect of whole body JNK1-deficiency on HFD-induced weight gain, hyperglycemia, glucose intolerance, insulin sensitivity, glucose-induced insulin release” value was “significantly suppressed the effect of whole body JNK1-deficiency”. In the data set with N^KO and N^WT mice (PTU 1.2 mM in drinking water, NKO mice), the “expression of thyroid hormone responsive genes in intrascapular brown fat” value was “suppressed the increased expression of thyroid hormone responsive genes”. In addition, in the data set with N^KO and N^WT mice (PTU in drinking water 12 wks, diet groups after 2 wks), the “body weight when fed a HFD, N^KO vs N^WT” value was “No statistically significant differences”. Further, the “blood glucose, insulin, leptin and resistin concentrations and body temperature, N^KO vs N^WT” value in the data set with N^KO and N^WT mice (after 12 wks of PTU, chow-fed and HFD-fed) is reported as “No significant differences”. The “metabolic phenotypes of NKO mice” value in the data set on N^KO and N^WT mice (inhibition of thyroid hormone by PTU-treatment) is “markedly suppressed the metabolic phenotypes”.

B1: IL6: inflammatory cytokine interleukin 6, given to mice by subcutaneous injection (1 μg/kg) (protein, UniProt P08505 25-211, looked up)
Interleukin-6: FPTSQVRRGDFTEDTTPNRPVYTTSQVGGLITHVLWEIVEMRKELCNGNSDCMNNDDALAENNLKLPEIQRNDGCYQTGYNQEICLLKISSGLLEYHSYLEYMKNNLKDNKKDKARVLQRDTETLIHIFNQEVKDLHKIVLPTPISNALLTDKLESQKEWLRTKTIQFILKSLEEFLKVTLRSTRQT
As to B1, in the data set with HFD-fed F^KO mice, the “insulin resistance in insulin tolerance test” value is on record as “became equally insulin resistant”. In addition, the “hepatic SOCS3 expression” value with SOCS3 is “increased hepatic SOCS3 expression”. The “blood IL6 concentration” value in data set [1] was determined as 44 ± 9.1 pg/mL. Further, in the data set with AKT (epididymal fat pads), the “effect on AKT activation in the adipose tissue” value is on record as “only a moderate effect”. The “insulin-stimulated AKT activation in the liver” value with AKT (liver) is “reduced insulin-stimulated AKT activation”.
